Data from patent publication US10918741B2, “PSMA-targeting imaging agents” (THE CLEVELAND CLINIC FOUNDATION, priority 2014, dated 2021).
“Also recorded” adds a separate entry of the source. Primed or numbered codes have the meaning given here. Where no end group is shown, it is not given here. [ ]: non-standard residue; d: D form. Amc = N-aminomethyl cyclohexanoic acid; Ahx = NCCCCCC(=O)O; E′E = Glu-urea-Glu

Columns and labels:
[1] = hematological, biochemistry, and histopathological analyses; cited from earlier work
[2] = cited from earlier work
[3] = tested on: PC3-PIP (PSMA+) and PC3-flu (PSMA−) tumor xenographs; assay: SPECT/CT imaging of [^99mTc]3; format: in vivo, mice; conditions: 4 hours after tail vein injection
Experimental: (§1) Male NOD scid gamma (NSG) mice bearing PC3-PIP (PSMA+) and PC3-flu (PSMA−) tumor xenographs were used for imaging. The mice were injected with 3 mCi of [^99mTc]3. Four hours after tracer injection, SPECT/CT images were acquired using a high-resolution multi-pinhole SPECT with collimation insert with a clinical SPECT/CT scanner (Symbia T6, Siemens Molecular Imaging). DiFilippo, F. P. Phys Med Biol 53(15): 4185-4201 (2008). For the biodistribution study without imaging, male NSG mice bearing two PC3-PIP tumors were injected with 50-100 µCi of [^99mTc]3. Mice were sacrificed at 2 hours, 4 hours and 6 hours after injection. After thoracotomy, blood was first withdrawn from the heart, then the organs were resected en-block. The activities were counted with a Perkin Elmer 2480 Automatic Gamma Counter. The decay corrected percent injected dose per gram of organ weight (wet) (% ID/g) was calculated.

[4] = tested on: PC3-PIP tumors; parameters: species or system mice; conditions: mouse, in vivo
Experimental: as §1

[5] = format: physicochemical
Experimental: Labeling with technetium typically yields 95% radiochemical purity after SepPak purification. […] The kidneys and bladder are the most prominent organs on the images, because PSMA is expressed naturally in mouse kidneys and because it is a renally excreted compound. […] Tumor uptake is 6.0±1.6% at 2 hours, 6.0±2.2% at 4 hours and 5.7%±2.5% at 6 hours (Table 2). […] This is likely related to residual pertechnetate after cartridge purification and dissociation of technetium from the chelate.

Row | Molecule | toxicity in words [1] | water solubility in words [2] | SPECT/CT imaging result in words [3] | radioactivity in the stomach [4] [% ID/g] | radioactivity in the thyroid [4] [% ID/g] | stability under solvent conditions for HPLC [5]
1 | CC1(C)C(=CC=C2CCCC(C=CC3=[N+](CCCCCC(=O)[O-])c4ccc(S(=O)(=O)[O-])cc4C3(C)C)=C2Oc2ccc(S(=O)(=O)[O-])cc2)N(CCCCS(=O)(=O)[O-])c2ccc(S(=O)(=O)[O-])cc21.[Na+].[Na+].[Na+].[Na+] [IRDye 800CW] | no pathologic evidence of toxicity | highly water soluble | – | – | – | –
2 | ^99mTc-E′EAmc-Ahx-dEdEdEGYGGGC ({E′E-Amc}-[Ahx][dE][dE][dE]GYGGGC; not fully specified (C-terminus); also: 99mTc chelated (N3S1)) [[^99mTc]3, Tc99m labeled compound 3] | – | – | specific targeting of PSMA+PC3-PIP tumors with no significant binding to PC3-flu tumors; also recorded: near background tracer uptake in the PSMA negative tumors, liver, lung, heart and spleen | 0.2 | 0.3 | not stable
